US20230061736A1, “GPR119 AGONISTS” (Kallyope, Inc., priority 2019, published 2023)

Molecular target: T1, human GPR119 (hGPR119) (Homo sapiens, UniProt Q8TDV5)
T1 construct: expressed in transfected cells
T1 sequence (Q8TDV5 1-335): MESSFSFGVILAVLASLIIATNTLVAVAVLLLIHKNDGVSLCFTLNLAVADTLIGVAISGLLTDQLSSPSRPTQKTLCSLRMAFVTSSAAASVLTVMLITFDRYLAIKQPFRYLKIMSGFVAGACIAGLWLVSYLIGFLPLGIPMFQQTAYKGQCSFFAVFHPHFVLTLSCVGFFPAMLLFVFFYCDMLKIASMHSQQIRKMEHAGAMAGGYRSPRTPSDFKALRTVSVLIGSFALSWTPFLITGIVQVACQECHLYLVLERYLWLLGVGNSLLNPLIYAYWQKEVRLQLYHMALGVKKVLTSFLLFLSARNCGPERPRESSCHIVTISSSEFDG
Experiment: cAMP accumulation assay (cAMP Gs dynamic HTRF kit)
Assay type: cell-based
Conditions: CHO-K1 cells stably expressing hGPR119, 4-parameter fit; for Emax: 1 h, % activity normalized to Max/Min controls; for EC50: cAMP accumulation
Method in brief: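 CHO-K1 cells stably expressing hGPR119, used as assay-ready frozen stocks at ~10,000 cells/well, exposed to compound dose-response in stimulation buffer with Tween 80 for 60 min at 37° C. cAMP read by HTRF (665/620 nm ratio), normalised to Max/Min controls; EC50 and Max activity from 4-parameter fit.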

Row | Structure (SMILES) | Emax [%] | EC50 [nM]
1 | O=C(Cc1ccc(OCCCC2CCN(c3ncc(Cl)cn3)CC2)cc1F)N1CC(CN[C@@H]2C[C@H](O)[C@@H](O)[C@H]2O)C1 (racemic) [Example 49, 2-[4-[3-[1-(5-chloropyrimidin-2-yl)-4-piperidyl]propoxy]-2-fluoro-phenyl]-1-[3-[[[rac-(1R,2S,3R,4S)-2,3,4-trihydroxycyclopentyl]amino]methyl]azetidin-1-yl]ethanone] | ≥ 130 | 100 to 1000
2 | O=C(Cc1ccc(OCCCC2CCN(c3ncc(Cl)cn3)CC2)cc1F)NCCCCC(=O)NC(CO)(CO)CO [Example 24, 5-[[2-[4-[3-[1-(5-chloropyrimidin-2-yl)-4-piperidyl]propoxy]-2-fluoro-phenyl]acetyl]amino]-N-[2-hydroxy-1,1-bis(hydroxymethyl)ethyl]pentanamide] | ≥ 130 | 100 to 1000
3 | CCc1cnc(N2CCC(CCCOc3ccc(CC(=O)N4CC(CNCC(O)(CO)CO)C4)c(F)c3)CC2)nc1 [Example 63, 1-(3-(((2,3-dihydroxy-2-(hydroxymethyl)propyl)amino)methyl)azetidin-1-yl)-2-(4-(3-(1-(5-ethylpyrimidin-2-yl)piperidin-4-yl)propoxy)-2-fluorophenyl)ethan-1-one] | ≥ 130 | ≤ 100
4 | O=C(Cc1ccc(OCCCC2CCN(c3ncc(Cl)cn3)CC2)cc1F)N1CC[C@@H](CNCC(O)(CO)CO)C1 [Example 99, 2-[4-[3-[1-(5-chloropyrimidin-2-yl)-4-piperidyl]propoxy]-2-fluoro-phenyl]-1-[(3S)-3-[[[2,3-dihydroxy-2-(hydroxymethyl)propyl]amino]methyl]pyrrolidin-1-yl]ethanone] | ≥ 130 | ≤ 100
5 | O=C(Cc1ccc(OCCCC2CCN(c3ncc(Cl)cn3)CC2)cc1F)N1CC[C@@H](CNC(CO)(CO)CO)C1 [Example 148, 2-[4-[3-[1-(5-chloropyrimidin-2-yl)-4-piperidyl]propoxy]-2-fluoro-phenyl]-1-[(3S)-3-[[[2-hydroxy-1,1-bis(hydroxymethyl)ethyl]amino]methyl]pyrrolidin-1-yl]ethanone] | ≥ 130 | ≤ 100
6 | O=C(Cc1ccc(OCCCC2CCN(c3ncc(Cl)cn3)CC2)cc1F)NCCCCCNC[C@H](O)[C@@H](O)[C@H](O)[C@H](O)CO [Example 3] | ≥ 130 | 100 to 1000
7 | NCCOCCOCCNCC1CN(C(=O)Cc2ccc(OCCCC3CCN(c4ncc(Cl)cn4)CC3)cc2F)C1 [Example 52, 1-[3-[[2-[2-(2-aminoethoxy)ethoxy]ethylamino]methyl]azetidin-1-yl]-2-[4-[3-[1-(5-chloropyrimidin-2-yl)-4-piperidyl]propoxy]-2-fluoro-phenyl]ethanone] | 100 to 130 | 100 to 1000
8 | O=C(Cc1ccc(OCCCC2CCN(c3ncc(Cl)cn3)CC2)cc1F)NC(CO)(CO)CO [Example 5, 2-[4-[3-[1-(5-chloropyrimidin-2-yl)-4-piperidyl]propoxy]-2-fluoro-phenyl]-N-[2-hydroxy-1,1-bis(hydroxymethyl)ethyl]acetamide] | 100 to 130 | 100 to 1000
9 | O=C(CC1CN(C(=O)Cc2ccc(OCCCC3CCN(c4ncc(Cl)cn4)CC3)cc2F)C1)NCCCCS(=O)(=O)O [Example 178, 4-[[2-[1-[2-[4-[3-[1-(5-chloropyrimidin-2-yl)-4-piperidyl]propoxy]-2-fluoro-phenyl]acetyl]azetidin-3-yl]acetyl]amino]butane-1-sulfonic acid] | 100 to 130 | 100 to 1000
10 | O=C(Cc1ccc(OCCCC2CCN(c3ncc(Cl)cn3)CC2)cc1F)NCCCCCC(=O)NC(CO)CO [Example 17, 6-[[2-[4-[3-[1-(5-chloropyrimidin-2-yl)-4-piperidyl]propoxy]-2-fluoro-phenyl]acetyl]amino]-N-[2-hydroxy-1-(hydroxymethyl)ethyl]hexanamide] | ≥ 130 | 100 to 1000
11 | CCCc1cnc(N2CCC(CCCOc3ccc(CC(=O)N4CC(CNCC(O)(CO)CO)C4)c(F)c3)CC2)nc1 [Example 71, 1-(3-(((2,3-dihydroxy-2-(hydroxymethyl)propyl)amino)methyl)azetidin-1-yl)-2-(2-fluoro-4-(3-(1-(5-propylpyrimidin-2-yl)piperidin-4-yl)propoxy)phenyl)ethan-1-one] | 100 to 130 | ≤ 100
12 | O=C(Cc1ccc(OCCCC2CCN(c3ncc(Cl)cn3)CC2)cc1F)N1CC(CNCC(CO)CO)C1 [Example 45, 2-[4-[3-[1-(5-chloropyrimidin-2-yl)-4-piperidyl]propoxy]-2-fluoro-phenyl]-1-[3-[[[3-hydroxy-2-(hydroxymethyl)propyl]amino]methyl]azetidin-1-yl]ethanone] | 100 to 130 | ≤ 100

Next, values leading:

Row | Emax [%] | EC50 [nM] | Structure (SMILES)
13 | 100 to 130 | 100 to 1000 | O=C(Cc1ccc(OCCC2CC23CCN(c2ncc(Cl)cn2)CC3)cc1F)N1CC(CNC[C@H](O)[C@@H](O)[C@H](O)[C@H](O)CO)C1 (stereo partly drawn) [Example 110, 2-[4-[2-[6-(5-chloropyrimidin-2-yl)-6-azaspiro[2.5]octan-2-yl]ethoxy]-2-fluoro-phenyl]-1-[3-[[[(2S,3R,4R,5R)-2,3,4,5,6-pentahydroxyhexyl]amino]methyl]azetidin-1-yl]ethanone]
14 | 100 to 130 | ≤ 100 | COCc1cnc(N2CCC(CCCOc3cc(F)c(CC(=O)N4CC[C@H](C(=O)NC[C@H](O)[C@@H](O)[C@H](O)[C@H](O)CO)C4)c(F)c3)CC2)nc1 [Example 131, (3S)-1-[2-[2,6-difluoro-4-[3-[1-[5-(methoxymethyl)pyrimidin-2-yl]-4-piperidyl]propoxy]phenyl]acetyl]-N-[(2S,3R,4R,5R)-2,3,4,5,6-pentahydroxyhexyl]pyrrolidine-3-carboxamide]
15 | 100 to 130 | ≤ 100 | O=C(Cc1ccc(OCCCC2CCN(c3ncc(Cl)cn3)CC2)cc1F)N1CC(CNC[C@H](O)[C@@H](O)[C@H](O)CO)C1 [Example 166, 2-[4-[3-[1-(5-chloropyrimidin-2-yl)-4-piperidyl]propoxy]-2-fluoro-phenyl]-1-[3-[[[(2S,3R,4R)-2,3,4,5-tetrahydroxypentyl]amino]methyl]azetidin-1-yl]ethanone]
16 | 100 to 130 | ≤ 100 | O=C(Cc1ccc(OCCCC2CCN(c3ncc(Cl)cn3)CC2)cc1F)N1CC[C@H](CNC[C@H](O)[C@@H](O)[C@H](O)[C@H](O)CO)C1 [Example 100, 2-[4-[3-[1-(5-chloropyrimidin-2-yl)-4-piperidyl]propoxy]-2-fluoro-phenyl]-1-[(3R)-3-[[[(2S,3R,4R,5R)-2,3,4,5,6-pentahydroxyhexyl]amino]methyl]pyrrolidin-1-yl]ethanone]
17 | 100 to 130 | ≤ 100 | O=C(Cc1ccc(OCCCC2CCN(c3ncc(Cl)cn3)CC2)cc1F)N1CCC(O)(CNC[C@H](O)[C@H](O)[C@H](O)CO)CC1 [Example 187, 2-[4-[3-[1-(5-chloropyrimidin-2-yl)-4-piperidyl]propoxy]-2-fluoro-phenyl]-1-[4-hydroxy-4-[[[(2S,3S,4R)-2,3,4,5-tetrahydroxypentyl]amino]methyl]-1-piperidyl]ethanone]
18 | 100 to 130 | 100 to 1000 | CC(C)OC(=O)N1CCC2(CC1)CC2CCCOc1cc(F)c(CC(=O)N2CC(CNC[C@H](O)[C@@H](O)[C@H](O)[C@H](O)CO)C2)c(F)c1 (stereo partly drawn) [Example 146, isopropyl 2-[3-[3,5-difluoro-4-[2-oxo-2-[3-[[[(2S,3R,4R,5R)-2,3,4,5,6-pentahydroxyhexyl]amino]methyl]azetidin-1-yl]ethyl]phenoxy]propyl]-6-azaspiro[2.5]octane-6-carboxylate]
19 | 100 to 130 | 100 to 1000 | O=C(Cc1c(F)cc(OCCC2CCC23CCN(c2ncc(Cl)cn2)CC3)cc1F)N1CC(CNC[C@H](O)[C@@H](O)[C@H](O)[C@H](O)CO)C1 (stereo partly drawn) [Example 139, 2-[4-[2-[7-(5-chloropyrimidin-2-yl)-7-azaspiro[3.5]nonan-3-yl]ethoxy]-2,6-difluoro-phenyl]-1-[3-[[[(2S,3R,4R,5R)-2,3,4,5,6-pentahydroxyhexyl]amino]methyl]azetidin-1-yl]ethanone]
20 | 100 to 130 | 100 to 1000 | O=C(Cc1ccc(CC(=O)N2CC(CNC[C@H](O)[C@@H](O)[C@H](O)[C@H](O)CO)C2)c(F)c1)OCCC1CCN(c2ncc(Cl)cn2)CC1 (racemic) [Example 92, 2-[1-(5-chloropyrimidin-2-yl)-4-piperidyl]ethyl 2-[3-fluoro-4-[2-oxo-2-[3-[[[rac-(2S,3R,4R,5R)-2,3,4,5,6-pentahydroxyhexyl]amino]methyl]azetidin-1-yl]ethyl]phenyl]acetate]
21 | 100 to 130 | ≤ 100 | CCOc1cnc(N2CCC(CCCOc3cc(F)c(CC(=O)N4CC[C@@H](CNC[C@H](O)[C@@H](O)[C@H](O)[C@H](O)CO)C4)c(F)c3)CC2)nc1 [Example 134, 2-[4-[3-[1-(5-ethoxypyrimidin-2-yl)-4-piperidyl]propoxy]-2,6-difluoro-phenyl]-1-[(3S)-3-[[[(2S,3R,4R,5R)-2,3,4,5,6-pentahydroxyhexyl]amino]methyl]pyrrolidin-1-yl]ethanone]
22 | 100 to 130 | ≤ 100 | O=C(Cc1c(F)cc(OCCC2CC(C3CCN(c4ncc(Cl)cn4)CC3)C2)cc1F)N1CC(CNC[C@H](O)[C@@H](O)[C@H](O)[C@H](O)CO)C1 (stereo partly drawn) [Example 124, 2-[4-[2-[3-[1-(5-chloropyrimidin-2-yl)-4-piperidyl]cyclobutyl]ethoxy]-2,6-difluoro-phenyl]-1-[3-[[[(2S,3R,4R,5R)-2,3,4,5,6-pentahydroxyhexyl]amino]methyl]azetidin-1-yl]ethanone]
